The values below come from patent publication US6413531B1, “Potentiation of biocide activity using a diethanolamide” (Buckman Laboratories International, Inc., priority 1998, dated 2002).

This assay has as its system Pseudomonas aeruginosa ("Ps. aeruginosa") ATCC 15442. Description: Antibacterial test, growth/no-growth (MIC) in liquid medium. It counts as cell-based. The conditions noted are these: within the concentration range tested, i.e., up to 2000 ppm. On the procedure:
The following materials and procedure were used to determine the potentiating effect of a diethanolamide with various biocides.
(1) Pseudomonas aeruginosa (“Ps. aeruginosa”) ATCC 15442 (a bacterium)
NaCl, 8.0 g; glucose, 1.0 g; tryptone, 1.0 g; DI water, 1.0 L.
5 ml of growth medium were suspended in test tubes, and the culture medium was autoclaved at 121° C. for 20 min. Biocide stock aqueous solutions were added in each tube to give the desired biocide-diethanolamide concentrations in parts per million. No biocide was added to the control tubes. All tubes were inoculated by adding 0.1 ml of inoculum to give a bacterial concentration of about 10^6 cells/ml (10^6 spores/ml for fungal test). After each addition, the tubes were shaken vigorously to mix the contents thoroughly. All inoculated tubes were placed at 37° C. for antibacterial test and at 28° C. for antifungal test. Bacterial growth was checked after 5-7 days and fungal growth was checked after 10-14 days.
The MIC of each biocide and diethanolamide acting alone and in combination was determined on a growth-no-growth basis. Tables 1-16 present both the lowest concentrations of each biocide and diethanolamide separately for which there was no growth, and the lowest concentration of biocide in combination with diethanolamide for which there was no growth. […]

Turning to “(RS)-1- 2-[(2,4-dichlorophenyl)-2-propyl-1,3-dioxalan-2ylmethyl]-1H-1,2,4-triazole [propiconazole]”, the antibacterial activity entry is reported as “does not have any antibacterial activity”.
